Results taken from ChEMBL document CHEMBL1201862, “PubChem BioAssay data set” (2004).
Activity calls are given as the source filed them.

molecular target: T1, Corticotropin-releasing factor receptor 2/Corticotropin-releasing factor-binding protein (Homo sapiens, UniProt P24387+Q13324); test: Dose Response confirmation of uHTS hits for small molecule antagonists of the CRF-binding protein and CRF-R2 receptor complex.; assay type: functional; conditions: read-out: IC50_Mean
T1 sequence (Q13324 whole entry): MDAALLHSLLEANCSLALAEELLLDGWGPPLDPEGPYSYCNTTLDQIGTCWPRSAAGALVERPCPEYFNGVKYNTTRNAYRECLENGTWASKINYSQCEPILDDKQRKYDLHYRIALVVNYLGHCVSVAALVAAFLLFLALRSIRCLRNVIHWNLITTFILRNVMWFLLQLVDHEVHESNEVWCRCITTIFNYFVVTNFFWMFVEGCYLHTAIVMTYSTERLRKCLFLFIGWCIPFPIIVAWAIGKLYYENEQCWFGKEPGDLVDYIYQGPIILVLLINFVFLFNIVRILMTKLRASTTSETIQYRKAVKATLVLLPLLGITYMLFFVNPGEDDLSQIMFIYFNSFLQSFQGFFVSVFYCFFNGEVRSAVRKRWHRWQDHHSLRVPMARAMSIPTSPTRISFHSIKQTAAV
T1 sequence (P24387 whole entry): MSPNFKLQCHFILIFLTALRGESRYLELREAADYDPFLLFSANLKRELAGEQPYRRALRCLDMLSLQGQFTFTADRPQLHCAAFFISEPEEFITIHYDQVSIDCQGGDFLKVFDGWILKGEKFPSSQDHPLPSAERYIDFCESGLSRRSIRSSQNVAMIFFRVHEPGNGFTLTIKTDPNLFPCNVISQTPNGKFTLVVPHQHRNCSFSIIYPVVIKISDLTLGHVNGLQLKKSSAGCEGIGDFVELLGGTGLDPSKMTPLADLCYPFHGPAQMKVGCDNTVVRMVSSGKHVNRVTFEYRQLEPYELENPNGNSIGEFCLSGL

| SMILES | IC50 |
| --- | --- |
| CCN(c1cccc(C)c1)c1nc2ccsc2c(=O)s1 | > 47.1 µM (inactive) |
| CC(=O)c1ccccc1NC(=O)Cn1c(=O)cnc2ccccc21 | > 47.1 µM (inactive) |
| O=C(COC(=O)COc1ccc(Cl)cc1Br)NCc1cccs1 | > 47.1 µM (inactive) |
| O=C(COC(=O)c1ccncc1)Nc1cc(S(=O)(=O)N2CCOCC2)ccc1Cl | > 47.1 µM (inactive) |

The remaining lines, values ahead:

| IC50 | SMILES |
| --- | --- |
| > 47.1 µM (inactive) | O=C(/C=C/c1ccccc1[N+](=O)[O-])N1CCOCC1 |
| > 47.1 µM (inactive) | COc1ccc2[nH]c3c(c2c1)CCN1C(=O)C(CC(=O)NCCc2ccccn2)C[C@H](C(=O)N(C(C)C)C(C)C)[C@@]31C (stereo not given in full) |
| > 47.1 µM (inactive) | COc1ccc(N(C(=O)c2ccco2)C(C(=O)NC2CCCC2)c2ccc(N3CCOCC3)cc2)c(OC)c1 (stereo not given) |

system: INS1; test: INS-1E survival protection against cytokine death – cell-based, luminescence, retest, dose response (AID 449756); assay type: functional; conditions: Rattus norvegicus;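 note: cell death triggered by IL-1 beta plus TNF-alpha plus IFN-gamma mixture; protective hits raise ATP signal compared with cytokine alone wells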

| SMILES | AC50 |
| --- | --- |
| Nc1ccc(Nc2ccc([N+](=O)[O-])cc2[N+](=O)[O-])cc1 | 59.4 µM (active) |
| Cc1ccccc1OC1C(=O)N(Cc2ccc3c(c2)OCO3)C1c1sccc1C (stereo not given) | 11.4 µM (active) |

molecular target: Cytochrome P450 3A4 (Homo sapiens, UniProt P08684); conditions: Potency;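 note: confirmatory qHTS run detecting inhibitors and substrates of CYP3A4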
Sequence (P08684 whole entry): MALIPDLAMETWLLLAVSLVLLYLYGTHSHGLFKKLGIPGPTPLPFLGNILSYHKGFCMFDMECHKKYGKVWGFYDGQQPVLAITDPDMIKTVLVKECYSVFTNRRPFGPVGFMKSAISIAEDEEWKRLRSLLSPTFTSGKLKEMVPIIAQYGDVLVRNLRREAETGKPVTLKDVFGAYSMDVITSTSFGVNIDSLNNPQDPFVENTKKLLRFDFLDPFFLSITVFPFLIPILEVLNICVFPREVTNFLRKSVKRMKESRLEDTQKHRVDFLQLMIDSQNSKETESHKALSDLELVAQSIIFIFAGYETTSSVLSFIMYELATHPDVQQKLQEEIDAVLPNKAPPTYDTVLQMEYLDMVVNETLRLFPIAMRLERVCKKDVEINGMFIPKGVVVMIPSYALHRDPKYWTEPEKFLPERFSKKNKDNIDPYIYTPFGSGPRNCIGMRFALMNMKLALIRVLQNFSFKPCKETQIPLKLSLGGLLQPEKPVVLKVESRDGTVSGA

| AC50 | SMILES |
| --- | --- |
| 31.6 µM (inconclusive) | O=C(CCCCCCCCCCCCC1CCCC1)Nc1ccc(S(=O)(=O)c2ccc(NC(=O)CCCCCCCCCCCCC3CCCC3)cc2)cc1 [CHAULMOSULFONE] |

molecular target: T2, Calpain-2 catalytic subunit (Sus scrofa, UniProt P43367); test: m-calpain protease blockers, concentration series – biochemical, fluorogenic peptide substrate, dose response (AID 1420); assay type: functional; conditions: not given
T2 sequence (P43367 whole entry): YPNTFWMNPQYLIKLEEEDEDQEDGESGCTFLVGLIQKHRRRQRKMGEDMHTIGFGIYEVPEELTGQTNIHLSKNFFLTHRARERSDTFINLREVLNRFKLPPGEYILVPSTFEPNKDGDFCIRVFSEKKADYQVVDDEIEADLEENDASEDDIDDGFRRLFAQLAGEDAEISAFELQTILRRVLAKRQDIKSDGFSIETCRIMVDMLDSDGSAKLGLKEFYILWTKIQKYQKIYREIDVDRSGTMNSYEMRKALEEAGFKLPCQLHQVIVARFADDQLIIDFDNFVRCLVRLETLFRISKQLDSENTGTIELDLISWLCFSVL

| SMILES | IC50 |
| --- | --- |
| O=C(c1ccc(Oc2ccccc2)cc1)c1nc2c(n1O)CCCC2 | 12.9 µM (not active) |
| Cc1ccc(-c2csc(NC(=S)NC(=O)c3ccco3)n2)cc1 | 4.46 µM (not active) |
| Cc1nc(SCC(=O)NC(C)c2ccccc2)c2oc3ccccc3c2n1 (stereo not given) | < 0.4 µM (not active) |

Further lines, results first:

| IC50 | SMILES |
| --- | --- |
| 12.5 µM (not active) | O=C1NN=C(c2ccc(Cl)cc2)CC1c1cccc(Br)c1 (stereo not given) |
| 31 µM (not active) | CCCC1Cc2c(sc(NC(=S)NC(=O)c3ccccc3)c2C#N)CO1 (stereo not given) |
| 10.7 µM (not active) | CC(NC(=O)CCCCCN1C(=O)c2ccccc2C1=O)c1ccc2c(c1)CCCC2 (stereo not given) |
| 8.86 µM (not active) | CCNC(=O)NCc1c(C)c(C)n(Cc2ccccc2)c1-n1cccc1 |
| 26.2 µM (not active) | CCc1cccc2c(SCC(=O)NCC3CCCO3)nc(-c3ccc(F)cc3)nc12 (stereo not given) |

molecular target: T1, Corticotropin-releasing factor receptor 2/Corticotropin-releasing factor-binding protein; test: activators of CRF receptor 2 with binding protein – uHTS hits, confirmation (AID 602473); assay type: functional; conditions: read-out: EC50_Mean

| SMILES | EC50 |
| --- | --- |
| CCN(c1cccc(C)c1)c1nc2ccsc2c(=O)s1 | > 53 µM (inactive) |
| CC(=O)c1ccccc1NC(=O)Cn1c(=O)cnc2ccccc21 | > 53 µM (inactive) |
| O=C(COC(=O)COc1ccc(Cl)cc1Br)NCc1cccs1 | > 53 µM (inactive) |
| O=C(COC(=O)c1ccncc1)Nc1cc(S(=O)(=O)N2CCOCC2)ccc1Cl | > 53 µM (inactive) |

Continued, values first:

| EC50 | SMILES |
| --- | --- |
| > 53 µM (inactive) | O=C(/C=C/c1ccccc1[N+](=O)[O-])N1CCOCC1 |
| > 53 µM (inactive) | COc1ccc2[nH]c3c(c2c1)CCN1C(=O)C(CC(=O)NCCc2ccccn2)C[C@H](C(=O)N(C(C)C)C(C)C)[C@@]31C (stereo not given in full) |
| > 53 µM (inactive) | COc1ccc(N(C(=O)c2ccco2)C(C(=O)NC2CCCC2)c2ccc(N3CCOCC3)cc2)c(OC)c1 (stereo not given) |
